Among the data in publication PMC7734281, “Functionalized Oxoindolin Hydrazine Carbothioamide Derivatives as Highly Potent Inhibitors of Nucleoside Triphosphate Diphosphohydrolases” (Frontiers in Pharmacology, 2020) are inhibition, Ki and IC50 values, retold here.

Common to all, as to type: biochemical
The target of assay [1] is T1, h-NTPDase2 (Homo sapiens, UniProt Q9Y5L3).
T1 construct: made in house; host or cells: COS-7 cells, transient transfection; crude protein extract after sonication
T1 sequence (Q9Y5L3 1-495): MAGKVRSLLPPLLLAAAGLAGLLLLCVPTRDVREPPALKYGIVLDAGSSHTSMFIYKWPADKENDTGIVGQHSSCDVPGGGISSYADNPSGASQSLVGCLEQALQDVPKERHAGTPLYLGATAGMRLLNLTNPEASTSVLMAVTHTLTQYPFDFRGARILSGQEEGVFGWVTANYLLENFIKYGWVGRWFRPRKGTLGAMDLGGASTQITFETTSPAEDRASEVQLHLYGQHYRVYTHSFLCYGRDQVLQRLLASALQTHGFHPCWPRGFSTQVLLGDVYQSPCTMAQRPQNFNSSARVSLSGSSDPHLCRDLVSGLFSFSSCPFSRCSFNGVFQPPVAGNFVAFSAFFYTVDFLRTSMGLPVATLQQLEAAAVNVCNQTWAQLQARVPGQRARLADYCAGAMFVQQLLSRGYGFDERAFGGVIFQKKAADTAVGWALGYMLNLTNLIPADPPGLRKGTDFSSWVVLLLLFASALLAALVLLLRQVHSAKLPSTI
Description: h-NTPDase2 inhibition, malachite green assay. The conditions noted are these: for inhibition at 100 µM: compound 100 µM; for IC50: ATP 100 µM substrate, mean ± SEM of three independent experiments. As to the method:
(§1) COS-7 cells were transfected with plasmids expressing human or mouse NTPDases1, -2, -3, and -8 as previously described ([Levesque et al., 2007]; [Lecka et al., 2014]) Briefly, the confluent cells were transferred to Dulbecco’s Modified Eagle’s Medium containing no fetal bovine serum. Then, these cells were incubated with plasmid DNA (6 µg) and Lipofectamine reagent (24 µl) at 37°C. After 5 h, transfection was terminated with the addition of an equal volume of DMEM/F-12 (supplemented with 20% FBS) and cells were collected by harvesting after 40–72 h.
(§2) To prepare protein extracts, transfected COS-7 cells were washed three times with tris-saline buffer while temperature was maintained at 4°C. Then cells were scraped and resuspended in harvesting buffer containing 95 mM NaCl, 45 mM tris and 0.1 mM phenylmethylsulfonyl fluoride (pH 7.5). Cells were again washed twice by centrifugation for 5 min at 300 × g at 4°C and then resuspended in harvesting buffer (supplemented with 10 μg ml aprotinin). Following sonication, cellular debris was isolated by 10 min centrifugation at 300 g at 4°C. Subsequently, supernatant was removed very carefully and protein concentration was determined by using Bradford microplate assay while using the bovine serum albumin as a standard ([Bradford, 1976]).
(§3) The inhibitory effects of synthesized compounds on h-NTPDase1, -2, -3, and -8 were determined as described previously, although with slight modifications ([Martín-Satué et al., 2009]). Assay was conducted in a reaction medium containing 50 mM tris-HCl and 5 mM CaCl2 (pH 7.4). All the test compounds were dissolved in dimethyl sulfoxide (DMSO, 10%) and initially screened at a concentration of 100 µM. A reaction mixture containing 55 µl of assay buffer, 10 µl of test compound solution and 10 µl of h-NTPDase1 (58 ng/well) or h-NTPDase2 (79 ng/well) or h-NTPDase3 (163 ng/well) or h-NTPDase8 (66 ng/well) was incubated at 37°C for 10 min. Following the incubation, a 10 µl solution of adenosine triphosphate (ATP, 100 µm) was added as substrate and reaction mixture was again incubated for 15 min at 37°C. The reaction was stopped by adding malachite green reagent (15 µl) and placed at room temperature for 4 to 6 min. Finally, absorbance was measured at 630 nm by using Omega FLUOstar microplate reader (BMG Labtech, Ortenberg, Germany) and % inhibitions were calculated. For compounds showing more than 50% inhibition of any isozyme, dose response curves were generated and their IC50 values were determined. Three separate enzyme inhibition assays were carried out in triplicate and dose-response curve were generated by using PRISM 5.0 (GraphPad, San Diego, United States).

Assay [2] has as its target T2, m-NTPDase1 (Mus musculus, UniProt P55772).
T2 construct: made in house; host or cells: COS-7 cells, transient transfection; crude protein extract after sonication
T2 sequence (P55772 1-510): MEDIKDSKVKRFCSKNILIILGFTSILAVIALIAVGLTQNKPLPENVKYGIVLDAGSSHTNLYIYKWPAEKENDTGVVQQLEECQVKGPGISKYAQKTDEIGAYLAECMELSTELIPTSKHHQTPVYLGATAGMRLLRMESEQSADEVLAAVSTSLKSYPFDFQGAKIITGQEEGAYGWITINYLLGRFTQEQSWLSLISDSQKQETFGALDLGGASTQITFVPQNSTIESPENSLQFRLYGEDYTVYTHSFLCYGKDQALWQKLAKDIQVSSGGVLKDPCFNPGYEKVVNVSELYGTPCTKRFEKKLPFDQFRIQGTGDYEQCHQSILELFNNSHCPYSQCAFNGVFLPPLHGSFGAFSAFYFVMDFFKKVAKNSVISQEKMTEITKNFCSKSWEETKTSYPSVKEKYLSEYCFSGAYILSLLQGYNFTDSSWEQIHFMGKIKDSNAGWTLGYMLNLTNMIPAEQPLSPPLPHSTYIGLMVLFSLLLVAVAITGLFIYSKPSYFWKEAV
The experiment in a line: m-NTPDase1 inhibition, malachite green assay. The conditions noted are these: for inhibition at 100 µM: compound 100 µM; for IC50: mean ± SEM of three independent experiments. As to the method: as §1, §2, §3
(§4) Same procedure was adopted to determine the inhibitory effects of compounds on mouse NTPDases (m-NTPDases). However, the amount of protein used was as follows: m-NTPDase1 (82 ng/well), m-NTPDase2 (57 ng/well), m-NTPDase3 (110 ng/well) and m-NTPDase8 (79 ng/well)

Assay [3] has as its target T3, m-NTPDase3 (Mus musculus, UniProt Q8BFW6).
T3 construct: made in house; host or cells: COS-7 cells, transient transfection; crude protein extract after sonication
T3 sequence (Q8BFW6 1-529): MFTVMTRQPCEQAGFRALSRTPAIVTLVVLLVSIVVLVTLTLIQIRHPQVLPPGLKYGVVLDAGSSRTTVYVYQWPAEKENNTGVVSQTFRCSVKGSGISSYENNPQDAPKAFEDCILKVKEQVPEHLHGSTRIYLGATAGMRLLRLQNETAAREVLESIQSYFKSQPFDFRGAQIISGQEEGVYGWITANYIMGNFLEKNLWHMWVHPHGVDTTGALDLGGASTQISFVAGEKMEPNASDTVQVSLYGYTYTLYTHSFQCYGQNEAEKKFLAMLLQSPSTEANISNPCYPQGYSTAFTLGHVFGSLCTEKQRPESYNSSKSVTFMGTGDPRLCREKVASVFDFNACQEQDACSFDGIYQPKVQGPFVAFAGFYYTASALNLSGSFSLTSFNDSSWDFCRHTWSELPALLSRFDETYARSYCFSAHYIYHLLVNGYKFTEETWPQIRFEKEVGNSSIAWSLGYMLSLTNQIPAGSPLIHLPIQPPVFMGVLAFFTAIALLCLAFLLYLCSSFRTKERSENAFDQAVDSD
Description: m-NTPDase3 inhibition, malachite green assay. The conditions noted are these: for inhibition at 100 µM: compound 100 µM; for IC50: mean ± SEM of three independent experiments. As to the method:
as §1, §2, §3, §4

Take `O=C1Nc2ccccc2/C1=N/NC(=S)Nc1ccc(F)cc1` [8d, (Z)-N-(4-fluorophenyl)-2-(2-oxoindolin-3-ylidene)hydrazine-1-carbothioamide]: the inhibition at 100 µM was found to be 48% in assay [1], 41% in assay [2] and 29% in assay [3].

Take `Cc1ccc(NC(=S)N/N=C2\C(=O)Nc3ccccc32)cc1` [8h, (Z)-2-(2-oxoindolin-3-ylidene)-N-(p-tolyl)hydrazine-1-carbothioamide]: the inhibition at 100 µM in assay [1] stood at 17%; in assay [2], 29%; in assay [3] it was 31%.

As to `O=C1Nc2ccccc2/C1=N/NC(=S)NCc1ccccc1` [8f, (Z)-N-benzyl-2-(2-oxoindolin-3-ylidene)hydrazine-1-carbothioamide], the inhibition at 100 µM in assay [1] is less than 50%. In addition, in assay [2], the Ki came out at 0.04 µM and the concentration for half-maximal inhibition (IC50) stood at 4.14 ± 0.13 µM. The inhibition at 100 µM in assay [3] came out at 32%.

`O=C1Nc2ccccc2/C1=N/NC(=S)Nc1c(F)cccc1F` [8l, (Z)-N-(2,6-difluorophenyl)-2-(2-oxoindolin-3-ylidene)hydrazine-1-carbothioamide] had an inhibition at 100 µM in assay [1] of less than 50%. For the same compound, in assay [2], the affinity, expressed as Ki, was 0.03 µM and the concentration for half-maximal inhibition (IC50) is 3.22 ± 0.19 µM. In assay [3], this compound gave a Ki of 0.03 µM and a concentration for half-maximal inhibition (IC50) of 0.32 ± 0.04 µM.

Regarding `O=C1Nc2ccccc2/C1=N/NC(=S)Nc1cccc(Cl)c1` [8g, (Z)-N-(3-chlorophenyl)-2-(2-oxoindolin-3-ylidene)hydrazine-1-carbothioamide], the inhibition at 100 µM in assay [1] was determined as 29%; in assay [2], 48%; in assay [3] it was 27%.

In the case of `Cc1cccc(C)c1NC(=S)N/N=C1\C(=O)Nc2ccccc21` [8i, (Z)-N-(2,6-dimethylphenyl)-2-(2-oxoindolin-3-ylidene)hydrazine-1-carbothioamide], in assay [1], the affinity corresponds to a Ki of 0.17 µM and the IC50 is 0.41 ± 0.03 µM. The inhibition at 100 µM in assay [2] came to 20%. The compound further had an inhibition at 100 µM in assay [3] of 32%.

For `O=C1Nc2ccccc2/C1=N/NC(=S)Nc1ccc([N+](=O)[O-])cc1` [8b, (Z)-N-(4-nitrophenyl)-2-(2-oxoindolin-3-ylidene)hydrazine-1-carbothioamide], the inhibition at 100 µM amounted to 14% in assay [2] and 28% in assay [3].

Take `O=C1Nc2ccccc2/C1=N/NC(=S)Nc1ccccc1` [8a, (Z)-2-(2-oxoindolin-3-ylidene)-N-phenylhydrazine-1-carbothioamide]: the results for the inhibition at 100 µM in assay [1], in assay [2] and in assay [3] were 24%, 38% and 31%, respectively.

Take `Cc1ccc(C(=O)Nc2ccc(S(=O)(=O)O)c3cc(S(=O)(=O)O)cc(S(=O)(=O)O)c23)cc1NC(=O)c1cccc(NC(=O)Nc2cccc(C(=O)Nc3cc(C(=O)Nc4ccc(S(=O)(=O)O)c5cc(S(=O)(=O)O)cc(S(=O)(=O)O)c45)ccc3C)c2)c1` [Suramin, reference compound]: the Ki in assay [1] is 9.92 µM; in assay [3] it was 3.07 µM. In addition, the 50% inhibitory concentration (IC50) in assay [1] is 24.1 ± 3.01 µM; in assay [2] it was more than 100 µM; in assay [3], 31 ± 2 µM.

In the case of `CCNC(=S)N/N=C1\C(=O)Nc2ccccc21` [8m, (Z)-N-ethyl-2-(2-oxoindolin-3-ylidene)hydrazine-1-carbothioamide], testing at 100 µM in assay [1] gave an inhibition of 42%. In assay [2], this compound registered a Ki of 0.04 µM and an IC50 of 3.6 ± 0.02 µM. In assay [3], the Ki was 0.24 µM and the IC50 is 2.41 ± 0.15 µM.

As to `COc1ccc(NC(=S)NNC2=c3ccccc3=NC2=O)cc1` [8k, (Z)-N-(4-methoxyphenyl)-2-(2-oxoindolin-3-ylidene)hydrazine-1-carbothioamide], the Ki in assay [1] is 0.07 µM. The IC50 in assay [1] was determined as 0.16 ± 0.01 µM. Besides, the inhibition at 100 µM worked out at 42% in assay [2] and 36% in assay [3].

The compound `COc1ccc(OC)c(NC(=S)N/N=C2\C(=O)Nc3ccccc32)c1` [8j, (Z)-N-(2,5-dimethoxyphenyl)-2-(2-oxoindolin-3-ylidene)hydrazine-1-carbothioamide] displayed an inhibitory constant (Ki) in assay [1] of 0.04 µM. The compound further yielded an IC50 in assay [1] of 0.11 ± 0.08 µM. Moreover, the inhibition at 100 µM in assay [2] worked out at 24%; in assay [3] it was 30%.

With `O=C1Nc2ccccc2/C1=N/NC(=S)Nc1ccc(Cl)cc1` [8c, (Z)-N-(4-chlorophenyl)-2-(2-oxoindolin-3-ylidene)hydrazine-1-carbothioamide], the inhibition at 100 µM in assay [1] is 46%; in assay [2], 28%.

`COc1cccc(NC(=S)N/N=C2\C(=O)Nc3ccccc32)c1` [8e, (Z)-N-(3-methoxyphenyl)-2-(2-oxoindolin-3-ylidene)hydrazine-1-carbothioamide] came in with an inhibition at 100 µM in assay [1] of less than 50%. For the same compound, the Ki in assay [2] amounted to 0.006 µM; in assay [3], 0.07 µM. Besides, the IC50 in assay [2] was found to be 0.6 ± 0.03 µM; in assay [3], 0.7 ± 0.05 µM.
